From US7902184B2, “Piperazinyl pyrimidine derivatives” (Hoffmann-La Roche Inc., priority 2006, dated 2011)

Target: T1, histamine 3 receptor (H3R) (Homo sapiens, UniProt Q9Y5N1)
T1 construct: expressed in transfected cells; host or cells: CHO cells (membranes)
Experiment: Binding assay with 3H-(R)α-methylhistamine (competition binding, H3R-CHO membranes)
Conditions: membrane of the human H3R-CHO cell line; 3H(R)α-methylhistamine 1 nM; Ki calculated from IC50 by Cheng-Prusoff
Description: Binding Assay with ^3H—(R)α-methylhistamine
Saturation binding experiments were performed using HR3-CHO membranes prepared as described in Takahashi, K, Tokita, S., Kotani, H. (2003) J. Pharmacol. Exp. Therapeutics 307, 213-218.
An appropriate amount of membrane (60 to 80 μg protein/well) was incubated with increasing concentrations of ^3H(R)α-methylhistamine di-hydrochloride (0.10 to 10 nM). Non specific binding was determined using a 200 fold excess of cold (R)α-methylhistamine dihydrobromide (500 nM final concentration). The incubation was carried out at room temperature (in deep-well plates shaking for three hours). The final volume in each well was 250 μl. The incubation was followed by rapid filtration on GF/B filters (pre-soaked with 100 μl of 0.5% PEI in Tris 50 mM shaking at 200 rpm for two hours). The filtration was made using a cell-harvester and the filter plates were then washed five times with ice cold washing buffer containing 0.5 M NaCl. After harvesting, the plates were dried at 55° C. for 60 min, then scintillation fluid (Microscint 40, 40 microl in each well) was added and the amount of radioactivity on the filter was determined in Packard top-counter after shaking the plates for two hours at 200 rpm at room temperature.
Binding Buffer: 50 mM Tris-HCl pH 7.4 and 5 mM MgCl2×6H2O pH 7.4. Washing Buffer: 50 mM Tris-HCl pH 7.4 and 5 mM MgCl2×6H2O and 0.5 M NaCl pH 7.4.
Indirect measurement of affinity of H3R inverse agonists: twelve increasing concentrations (ranging from 10 μM to 0.3 nM) of the selected compounds were always tested in competition binding experiments using membrane of the human H3R-CHO cell line. […]
All compounds were tested at a single concentration in duplicate. […] Ki's were calculated from IC50 based on Cheng-Prusoff equation (Cheng, Y, Prusoff, W H (1973) Biochem Pharmacol 22, 3099-3108): Ki=IC50/[1+D/Kd] wherein D is the concentration of the radioligand and Kd is the binding constant for the radioligand binding to the receptor and the conditions used in the competition experiment.

T1 sequence (Q9Y5N1 whole entry): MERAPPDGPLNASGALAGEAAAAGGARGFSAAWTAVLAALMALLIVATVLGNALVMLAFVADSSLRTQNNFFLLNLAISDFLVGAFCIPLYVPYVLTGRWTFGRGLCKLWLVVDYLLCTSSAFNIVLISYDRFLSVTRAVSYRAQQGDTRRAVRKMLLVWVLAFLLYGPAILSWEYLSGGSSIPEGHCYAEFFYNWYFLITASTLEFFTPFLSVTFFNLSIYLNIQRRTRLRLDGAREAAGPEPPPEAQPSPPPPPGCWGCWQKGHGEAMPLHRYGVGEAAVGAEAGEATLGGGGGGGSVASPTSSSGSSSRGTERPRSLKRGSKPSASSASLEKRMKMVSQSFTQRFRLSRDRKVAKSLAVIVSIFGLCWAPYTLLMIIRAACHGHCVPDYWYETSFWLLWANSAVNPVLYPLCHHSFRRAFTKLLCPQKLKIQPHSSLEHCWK

Ki	SMILES
51 nM	O=C(Nc1ccnc(N2CCN(C3CCCC3)CC2)n1)N1CCCCCC1 [Example 6, azepane-1-carboxylic acid [2-(4-cyclopentyl-piperazin-1-yl)-pyrimidin-4-yl]-amide]
34.6 nM	CC(C)N1CCN(c2cc(NC(=O)N3CCCCC3)ncn2)CC1 [Example 54, piperidine-1-carboxylic acid [6-(4-isopropyl-piperazin-1-yl)-pyrimidin-4-yl]-amide]
22.2 nM	CC1CC(C)CN(C(=O)Nc2cc(N3CCN(C4CCCCC4)CC3)ncn2)C1 (stereo not drawn) [Example 93, 3,5-Dimethyl-piperidine-1-carboxylic acid [6-(4-cyclohexyl-piperazin-1-yl)-pyrimidin-4-yl]-amide]
